Experimental data published in ChEMBL document CHEMBL1201862, “PubChem BioAssay data set” (2004).
The source made the active and inactive calls.

Tests used:
[1] = target: T1, Leucine aminopeptidase (Plasmodium falciparum 3D7, UniProt Q8IL11); test: P. falciparum M17LAP inhibitors, primary screen, biochemical, fluorogenic H-Leu-NHMec substrate, 1536-well (AID 1619); assay type: functional
T1 sequence (Q8IL11 whole entry): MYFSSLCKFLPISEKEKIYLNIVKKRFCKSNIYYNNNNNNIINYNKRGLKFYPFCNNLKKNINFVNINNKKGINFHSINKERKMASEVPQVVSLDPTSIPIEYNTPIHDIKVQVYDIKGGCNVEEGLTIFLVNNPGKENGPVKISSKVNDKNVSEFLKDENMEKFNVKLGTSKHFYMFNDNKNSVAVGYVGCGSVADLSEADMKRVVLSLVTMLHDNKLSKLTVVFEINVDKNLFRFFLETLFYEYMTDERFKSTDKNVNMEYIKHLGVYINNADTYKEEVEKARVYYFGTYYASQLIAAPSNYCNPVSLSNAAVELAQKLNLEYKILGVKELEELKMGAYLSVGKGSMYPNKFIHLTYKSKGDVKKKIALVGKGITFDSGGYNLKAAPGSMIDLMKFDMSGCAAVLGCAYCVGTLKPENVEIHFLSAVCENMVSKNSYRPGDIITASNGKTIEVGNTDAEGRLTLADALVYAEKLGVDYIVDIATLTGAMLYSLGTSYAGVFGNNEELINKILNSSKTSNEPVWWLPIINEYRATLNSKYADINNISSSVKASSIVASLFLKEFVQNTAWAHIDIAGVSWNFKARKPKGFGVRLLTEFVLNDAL

[2] = target: Induced myeloid leukemia cell differentiation protein Mcl-1 (Homo sapiens, UniProt Q07820); assay type: functional
Induced myeloid leukemia cell differentiation protein Mcl-1, sequence (Q07820 whole entry): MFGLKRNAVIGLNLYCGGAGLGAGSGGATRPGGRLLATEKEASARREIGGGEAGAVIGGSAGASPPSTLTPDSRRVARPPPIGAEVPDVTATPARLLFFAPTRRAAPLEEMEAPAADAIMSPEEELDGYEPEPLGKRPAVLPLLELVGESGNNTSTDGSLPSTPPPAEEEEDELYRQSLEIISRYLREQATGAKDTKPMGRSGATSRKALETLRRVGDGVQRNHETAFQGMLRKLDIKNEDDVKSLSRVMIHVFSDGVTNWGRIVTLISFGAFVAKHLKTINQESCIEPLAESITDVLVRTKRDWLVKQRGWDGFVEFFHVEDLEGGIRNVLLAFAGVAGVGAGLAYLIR

[3] = viability loss of HPDE-C7K cells – cell-based, fluorescence, HTS, primary screen (AID 431); assay type: functional; settings: Homo sapiens
[4] = system: Streptococcus sp. 'group A'; test: Streptococcus pyogenes SK(-)GAS viability under kanamycin – luminescence, BacTiterGlo, confirmation, counter-screen for streptokinase expression inhibitor project, dose response (AID 1900); assay type: functional, organism-based
[5] = system: Streptococcus; test: GAS UMAA2166 growth inhibition – luminescence, BacTiterGlo, counter-screen for streptokinase expression inhibitor project, dose response (AID 1915); assay type: functional, organism-based;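 note: potency for reduction of bacterial viability or growth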
[6] = HPDE-C7 pancreatic duct cell viability loss – fluorescence, HTS (AID 430); assay type: functional, cell-based; settings: Homo sapiens
[7] = P. falciparum Dd2 growth inhibitors, dose response, SYBR Green, cherry-picked samples (AID 1159567); assay type: functional, cell-based
[8] = growth inhibition of yeast DHODH-expressing 3D7 parasites – SYBR Green, dry powder samples, dose response (AID 1159570); assay type: functional, cell-based;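 note: parasite growth measured after 72 hours of compound exposure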
[9] = toxicity to human HepG2 hepatoma cells – cell-based, plate reader, dry powder samples, cytotoxicity control, dose response (AID 1159569); assay type: functional;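 note: inhibitor potency with signal falling toward the positive control level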
[10] = Dd2 malaria parasite growth inhibition potency – SYBR Green, dry powder samples, dose response (AID 1159566); assay type: functional, cell-based;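 note: potency for growth inhibition with lower SYBR green DNA signal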
[11] = growth inhibition of PfATP4-mutant resistant parasites – NITD609-resistant line, SYBR Green, dry powder, dose response (AID 1159571); assay type: functional, cell-based;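 note: parasites synchronized at ring stage by sorbitol before testing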
[12] = target: T2, Caspase-6 (Homo sapiens, UniProt P55212); test: inhibition of CASP6 peptide cleavage – biochemical, VEID-R110 fluorescence, cherry-pick, dose response (AID 720632)
T2 sequence (P55212 whole entry): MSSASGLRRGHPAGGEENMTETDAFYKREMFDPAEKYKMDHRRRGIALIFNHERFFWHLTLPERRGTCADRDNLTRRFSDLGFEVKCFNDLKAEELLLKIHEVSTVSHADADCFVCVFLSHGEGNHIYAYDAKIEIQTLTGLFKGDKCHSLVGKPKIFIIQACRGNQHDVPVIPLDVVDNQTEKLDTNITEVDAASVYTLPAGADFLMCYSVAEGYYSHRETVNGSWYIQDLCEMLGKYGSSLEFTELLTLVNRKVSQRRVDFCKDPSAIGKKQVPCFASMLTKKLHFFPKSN

[13] = system: INS1; test: INS-1E survival protection against cytokine death – cell-based, luminescence, retest, dose response (AID 449756); assay type: functional; settings: Rattus norvegicus;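 note: cell death triggered by IL-1 beta plus TNF-alpha plus IFN-gamma mixture; protective hits raise ATP signal compared with cytokine alone wells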
[14] = target: T3, Galanin receptor type 3 (Homo sapiens, UniProt O60755); test: Fluorescence-based cell-based primary high throughput dose response assay to identify antagonists of the Galanin Receptor 3 (GalR3).; assay type: functional
T3 sequence (O60755 whole entry): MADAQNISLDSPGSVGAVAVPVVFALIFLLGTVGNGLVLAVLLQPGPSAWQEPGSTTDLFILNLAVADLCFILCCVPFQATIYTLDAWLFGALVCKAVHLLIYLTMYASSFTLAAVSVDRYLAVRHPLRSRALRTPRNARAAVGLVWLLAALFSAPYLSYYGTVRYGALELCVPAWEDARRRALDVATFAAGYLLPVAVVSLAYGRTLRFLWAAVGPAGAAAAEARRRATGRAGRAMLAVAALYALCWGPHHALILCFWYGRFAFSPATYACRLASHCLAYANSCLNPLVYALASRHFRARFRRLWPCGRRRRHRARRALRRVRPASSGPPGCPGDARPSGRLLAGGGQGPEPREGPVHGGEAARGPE

[15] = target: T4, COUP transcription factor 2 (Homo sapiens, UniProt P24468); test: Luminescence-based cell-based high throughput dose response assay to identify inhibitors of COUP-TFII (NR2F2).; assay type: functional;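 note: HEK293 cells transiently cotransfected with COUP-TFII expression vector and reporter; luciferase reporter luminescence driven by COUP-TFII from the pX2-168 reporter plasmid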
T4 sequence (P24468 whole entry): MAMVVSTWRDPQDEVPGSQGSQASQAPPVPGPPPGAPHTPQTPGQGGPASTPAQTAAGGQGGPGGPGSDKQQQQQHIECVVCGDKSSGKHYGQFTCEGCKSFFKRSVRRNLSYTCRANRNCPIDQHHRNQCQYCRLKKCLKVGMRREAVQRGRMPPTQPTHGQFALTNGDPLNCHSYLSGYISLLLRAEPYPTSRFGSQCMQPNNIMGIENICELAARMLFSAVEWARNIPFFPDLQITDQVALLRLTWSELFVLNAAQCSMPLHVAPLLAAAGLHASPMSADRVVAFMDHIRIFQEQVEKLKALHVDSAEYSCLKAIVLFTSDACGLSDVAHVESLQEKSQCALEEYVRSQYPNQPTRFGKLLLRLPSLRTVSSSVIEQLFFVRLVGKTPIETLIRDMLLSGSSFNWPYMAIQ

[16] = loss of viability in HepG2 cells – cell-based, CellTiter-Glo, cherry-picked, cytotoxicity control for Shn3 inhibitor project, dose response (AID 624134); assay type: functional
[17] = HIV-1 AD8 envelope cell-cell fusion blockers – cherry-pick, dose response (AID 652062); assay type: functional, cell-based;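 note: luciferase signal from cell-cell fusion driven by HIV-1 clade B AD8 Env; potency is for inhibitors of fusion seen as a drop in luminescence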
[18] = target: T5, Short transient receptor potential channel 4 (Mus musculus, UniProt Q9QUQ5); test: calcium entry via TRPC4 opening agents – cell-based, HEK293 TRPC4/mu-opioid, Fluo-4 calcium, dose response (AID 434937); assay type: functional
T5 sequence (Q9QUQ5 whole entry): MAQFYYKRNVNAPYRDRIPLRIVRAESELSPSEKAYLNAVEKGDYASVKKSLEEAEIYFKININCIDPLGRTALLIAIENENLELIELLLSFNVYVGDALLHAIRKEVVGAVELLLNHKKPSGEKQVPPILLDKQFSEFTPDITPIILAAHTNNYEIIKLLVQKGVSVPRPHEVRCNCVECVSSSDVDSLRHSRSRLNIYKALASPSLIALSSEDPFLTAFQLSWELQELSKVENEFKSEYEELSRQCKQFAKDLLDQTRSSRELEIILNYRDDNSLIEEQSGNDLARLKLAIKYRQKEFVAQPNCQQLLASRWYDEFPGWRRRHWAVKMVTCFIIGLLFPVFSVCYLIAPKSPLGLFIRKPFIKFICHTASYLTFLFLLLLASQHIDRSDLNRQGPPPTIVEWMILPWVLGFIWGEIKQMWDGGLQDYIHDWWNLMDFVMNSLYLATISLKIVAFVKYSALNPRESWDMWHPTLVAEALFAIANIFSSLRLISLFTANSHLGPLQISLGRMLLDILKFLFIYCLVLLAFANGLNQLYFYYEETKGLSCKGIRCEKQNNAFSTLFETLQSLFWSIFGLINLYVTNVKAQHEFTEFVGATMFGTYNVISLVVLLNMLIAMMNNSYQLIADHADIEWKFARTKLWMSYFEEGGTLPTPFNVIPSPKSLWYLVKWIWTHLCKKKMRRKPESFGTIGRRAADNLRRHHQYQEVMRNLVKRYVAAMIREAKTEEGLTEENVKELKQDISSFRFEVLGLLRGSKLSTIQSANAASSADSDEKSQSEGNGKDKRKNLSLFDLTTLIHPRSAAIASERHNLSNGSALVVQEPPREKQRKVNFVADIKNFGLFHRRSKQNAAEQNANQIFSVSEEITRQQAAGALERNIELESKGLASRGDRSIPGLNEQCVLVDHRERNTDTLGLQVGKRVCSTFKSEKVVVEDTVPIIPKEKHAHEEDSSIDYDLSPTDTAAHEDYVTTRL

[19] = HEK-293T viability loss after treatment – luminescence, T-cell screen hits, cytotoxicity control for TCR NF-kB inhibitor project, dose response (AID 489026); assay type: functional, cell-based;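 note: cells exposed to compound about 14 hours before the viability readout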
[20] = viability loss in CEM21 cells – cell-based, CellTiter-Glo luminescence, cherry-picked, cytotoxicity control for viral fusion inhibitor project, dose response (AID 652042); assay type: functional;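 note: potency for signal decrease meaning cytotoxicity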
[21] = reduction of Shn3 3'UTR-driven luciferase in osteoblasts – cell-based, Clone20 osteoblasts, firefly luciferase, cherry-picked, dose response (AID 624132); assay type: functional;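 note: firefly luciferase luminescence from reporter carrying the Shn3 3'UTR in osteoblasts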
[22] = non-specific 3'UTR reporter inhibition in Clone20-Shn3RL – cell-based, Renilla luciferase, cherry-picked, counter-screen for Shn3 inhibitor project, dose response (AID 624133); assay type: functional
[23] = viability of HCT116 lacking mutant beta-catenin – cell-based, human colon tumor, dose response (AID 1045); assay type: functional;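 note: HCT116 colon tumor cells with beta catenin knocked out; cells exposed to compound for 60 hours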
[24] = viability of PTEN-deleted HCT116 cells – cell-based, HCT116 PTEN knockout, dose response (AID 1047); assay type: functional;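 note: HCT116 colon tumor cells with PTEN knocked out; cells exposed to compound for 60 hours before readout; potency for loss of cell viability measured by luminescence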
[25] = microbe, parasite or virus in culture; assay type: functional; settings: Mycobacterium tuberculosis
[26] = system: HEK293; test: EBV LMP1 TES2 canonical NF-kB signalling blockers – cell-based, HEK293, luciferase, cherry-pick, dose response (AID 588343); assay type: functional; settings: Homo sapiens
[27] = blockers of HIV-1 ZM109 envelope-driven cell-cell fusion – HeLa effector, CEM target cells, luciferase, cherry-pick, dose response (AID 652058); assay type: functional, cell-based;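 note: luciferase signal from HIV-1 Env mediated cell-cell fusion of effector and target cells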
[28] = blockers of HIV-1 envelope-mediated cell-cell fusion – cherry-pick, dose response (AID 652057); assay type: functional, cell-based

NC(=O)c1c(Nc2nc3c(F)cccc3s2)sc2c1CCCC2
IC50 [1]: 81.8 µM (active)
IC50 [2]: 2.76 µM (active)

CCCCC(=O)O[C@H]1CC[C@H]2[C@@H]3CCc4cc(O)ccc4[C@H]3CC[C@]12C [ESTRADIOL VALERATE]
EC50 [3]: > 20 µM (not active)
EC50 [4]: 2.3 µM (active)
EC50 [5]: 2.29 µM (active)
EC50 [6]: 18.9 µM (active)

CCc1ccc(-c2nn(Cc3ccccc3)cc2/C=C/C(=O)O)cc1
IC50 [1]: 31.5 µM (active)

CO[C@H]1CN(C)C(=O)c2ccc(NC(=O)Nc3ccc(C(F)(F)F)cc3)cc2OC[C@H](C)NC[C@H]1C
AC50 [7]: 3.01 µM (active)
AC50 [8]: 1.37 µM (active)
AC50 [9]: 26.9 µM (active)
AC50 [10]: 2.16 µM (active)
AC50 [11]: 2.17 µM (active)

O=C(CC(Nc1cccc(Cl)c1Cl)C(=O)O)c1ccccc1 (stereo unspecified)
IC50 [1]: 14.2 µM (active)

CO[C@H]1CN(C)C(=O)c2cc(NC(=O)c3ccccc3F)ccc2OC[C@H](C)N(C(=O)c2ccccc2F)C[C@H]1C
AC50 [7]: 2.47 µM (active)
AC50 [8]: 2.93 µM (active)
AC50 [9]: > 100 µM (inactive)
AC50 [10]: 1.78 µM (active)
AC50 [11]: 1.53 µM (active)

COc1cc(C(=O)OCC(=O)N2CCCC2=O)cc(OC)c1C
AC50 [12]: 18.5 µM (active)

Oc1ccc(COCc2ccccc2)c2cccnc12
EC50 [3]: 8.49 µM (active)
EC50 [4]: 2.14 µM (active)
AC50 [13]: 1.77 µM (active)
EC50 [5]: 3.25 µM (active)
EC50 [6]: 10.4 µM (active)

c1ccc(CNc2ncnc3ccccc23)cc1
IC50 [14]: 2.42 µM (active)
IC50 [15]: 10.3 µM (inactive)

O=C(Nc1ccncc1)c1ccc(Cl)c(S(=O)(=O)N2CCc3ccccc32)c1
AC50 [16]: 6.33 µM (active)
AC50 [17]: 2.18 µM (active)
EC50 [18]: 5.31 µM (active)
IC50 [19]: 62.9 µM (inactive)
AC50 [20]: 51.1 µM (active)
AC50 [21]: 3.19 µM (active)
AC50 [22]: 16.6 µM (active)
IC50 [15]: 4.67 µM (active)

O=P(NS(=O)(=O)c1ccc(Br)cc1)(Oc1ccccc1)Oc1ccccc1
IC50 [1]: 30.1 µM (active)

O=C(Oc1ccccc1)c1cccc2cccnc12
EC50 [3]: > 20 µM (not active)
EC50 [23]: 11.5 µM (active)
EC50 [6]: 5.75 µM (active)
EC50 [24]: 11.3 µM (active)

CC(C)CN1C(=O)NC2(CCCc3ccccc32)C1=O (stereo unspecified)
AC50 [12]: 51.7 µM (active)

Cc1ccc2[nH]c3c(N4CCN(Cc5ccccc5)CC4)ncnc3c2c1
EC50 [3]: 16.8 µM (active)
CC50 [25]: 35.2 µM (active)
AC50 [16]: 30.8 µM (active)
AC50 [17]: 19.5 µM (active)
AC50 [26]: 11.8 µM (active)
AC50 [20]: 26.2 µM (active)
AC50 [21]: 4.18 µM (active)
AC50 [27]: 0.671 µM (active)
AC50 [22]: 20.3 µM (active)
EC50 [6]: 14.1 µM (active)
AC50 [28]: 8.98 µM (active)

COc1ccc(-c2ccccc2[C@H]2[C@@H](C#N)N(C(=O)NC3CCCCC3)[C@H]2CO)cc1
AC50 [7]: 3.13 µM (active)
AC50 [8]: 4.54 µM (active)
AC50 [9]: > 100 µM (inactive)
AC50 [10]: 3.88 µM (active)
AC50 [11]: 8.21 µM (active)

COc1ccccc1NC(=O)N1CCCCN2[C@H](CO)[C@H](c3ccc(C#Cc4ccccc4)cc3)[C@@H]2C1
AC50 [7]: < 0.3 µM (active)
AC50 [8]: 0.0745 µM (active)
AC50 [9]: > 100 µM (inactive)
AC50 [10]: 0.118 µM (active)
AC50 [11]: 0.0817 µM (active)
